Experimental findings from patent US20260248809A1, “ESTRADIOL PRODRUGS AND METHODS OF USE THEREOF” (UNIVERSITY OF MARYLAND, BALTIMORE, priority 2022, published 2026) are described below.

SMILES strings stand for the structures.

For experiment [1], the system named is male mice. Description: Subthreshold social defeat stress followed by female urine sniffing test (anhedonia). In kind it is in vivo, mouse. Conditions: for stress-induced anhedonia: chronic treatment (silastic implant or minipump), orchiectomized male mice + SSDS; for anhedonia (female urine preference): orchiectomized male mice. Here is the method: Subthreshold social defeat stress: Retired CD1 breeders are singly housed and used as aggressors. Experimental mice are introduced to the home cage of an aggressor for 2 min to initiate the physical attack phase. Afterward, mice are transferred and housed on the opposite side of the aggressor, in the same cage separated by a perforated Plexiglass divider for 15 mins in order to maintain sensory contact. This process is repeated 3 times over a period of ~50 min.
Female Urine Preference Test: is performed 24 hours after the social interaction test as using previously described methods. The amount of time mice spent interacting with a cotton-tipped applicator soaked in either fresh male or female mouse urine during a total of 3 minutes is analyzed by an experimenter blind to the experimental groups.
For the chronic administration paradigms, silastic tubes (1.02 mm inner diameter×2.16 mm outer diameter) were filled with testosterone (10 mm) or 17β-Estradiol (E2; 1,3 and 10 mm; Sigma-Aldrich, St. Louis, MO, USA). Silastic implants were primed in 0.9% saline at 37° C. overnight prior to their subcutaneous use. Letrozole (1 mg/kg/day; Sigma-Aldrich, St. Louis, MO, USA) was dissolved in propylene glycol (MP Biomedicals, Santa Ana, CA, USA) and administered through ALZET minipumps (Model 1002, 0.25 μl/hour, 14 days; Cupertino, CA, USA). DHED (synthesized using previously described methods) was dissolved in 0.9% saline and administered through ALZET minipumps (Model 1002, 0.25 μl/hour, 14 days; Cupertino, CA, USA) at a dose of […]. Flutamide was administered through 1.5 mg slow-release subcutaneous pellets (Innovative Research of America, Sarasota, FL, USA). For acute administration, 17β-Estradiol (E2; 10 and […]) was dissolved in sesame oil (4 ml/kg, s.c.; Sigma-Aldrich, St. Louis, MO, USA).
Retired CD1 breeders were singly housed and used as aggressors. Two days prior to the start of the experiment, experimental mice were also singly housed. The stress procedure was performed using previously described methods. Briefly, experimental mice were introduced to the home cage of an aggressor for 2 min to initiate the physical attack phase. Afterward, mice were transferred and housed on the opposite side of the aggressor, in the same cage separated by a perforated Plexiglass divider for 15 mins in order to maintain sensory contact. This process was repeated 3 times over a period of ~50 min. Following the completion of the third cycle, mice were placed back in their home cages.
Acute E2 was administered 45 min prior to the initiation of stress or 5 min after the completion of stress. For the optogenetic stimulation, ChR2 and YFP-injected mice received a 4 Hz, 5 ms pulse width, 10-15 mW 470 nm light stimulation for 45 min prior to the initiation of stress. This stimulation paradigm was shown previously to increase synaptic transmission. The optogenetic set up consisted of an LED driver paired with a fiber-coupled LED light source attached to a bifurcated optogenetic path cable (400 μm, 0.49 NA; ThorLabs, Newton NJ, USA).
FUST procedure was performed 24 hours after the social interaction test and 48 hours after stress. FUST was performed using previously described methods. The amount of time mice spent interacting with a cotton-tipped applicator soaked in either fresh male or female mouse urine during a total of 3 minutes was analyzed by an experimenter blind to the experimental groups.

For experiment [2], the system named is male mice. As to the kind of experiment: Stress-moderated acquisition, extinction and reinstatement of fear. The experiment is classed as in vivo, mouse. To be noted: orchiectomized males + subthreshold SDS, 10 mm silastic implant. An excerpt: Determine the role of E2 in stress-moderated acquisition, extinction, and reinstatement of fear responses in males. Animal approaches to study PTSD should include an inescapable severe stressor. These experiments assess interactions between a stress and the effects of E2. […] For either result, it is critical to understand if E2 mediates interactions with stress. This is because the acquisition of fear is an adaptive response that is not considered pathological in and of itself. However, veterans have often encountered stressful circumstances that lead to an exaggerated and pathological state of fear, which is both resistant to extinction and highly susceptible to relapse. Considering that social stress is an important risk factor contributing toward the onset of PTSD in response to a traumatic event, the social defeat stress paradigm is utilized in order to model the conditions under which veterans develop PTSD. […] It is anticipated that sub-threshold SDS (rather than 10 day) paradigm is sufficient to induce effects in orchiectomized mice. […] Mice are assessed for social interaction deficits 24 hours after the subthreshold defeat sessions to determine if they are resilient or susceptible. n=18/mice per group is used to account for only a subset of mice being susceptible to stress. […]

`C[C@]12CC[C@@H]3c4ccc(O)cc4CC[C@H]3[C@@H]1CC[C@@H]2O` [Example E2, 17β-Estradiol]: the stress-induced anhedonia result in the experiment on male mice [1] is recorded as “reversed”. For the same compound, the “anhedonia (female urine preference)” value in the experiment on male mice [1] (acute administration 5 min after SSDS) is recorded as “reversed only the anhedonia phenotype”; in the experiment on male mice [1] (acute s.c. administration 45 min prior to SSDS), “prevented”. In the experiment with male mice [2], the “stress effect on extinction of conditioned fear and reinstatement” value is listed as “reversed”.
On to `C[C@]12CC[C@H]3[C@@H](CCC4=CC(=O)CC[C@@]43C)[C@@H]1CC[C@@H]2O` [Testosterone, testosterone], for which the stress-induced anhedonia entry with male mice [1] is listed as “reversed the observed maladaptive behaviors”. Further, the “stress effect on extinction of conditioned fear and reinstatement” value with male mice [2] is given as “reversed”.
